The text below walks through data of patent US20130295100A1, “MARKERS FOR ACUTE KIDNEY INJURY AND USES THEREOF” (OSPEDALE SAN RAFFAELE S.R.L., priority 2010, published 2013).

The subject of series [1] is hypertension in patients. The conditions noted are these: reference 34; cited from earlier work.
Series [2] deals with ouabain antiserum. As to conditions: radioimmunoassay for endogenous ouabain, as previously described; cited from earlier work.
The test system of series [3] is nephrin, synaptopodin (podocyte proteins). Kind of series: Western blot of renal microsomes from ouabain-infused rats. The series is classed as in vivo, rat. As to conditions: OHR vs control rats. The protocol:
Renal microsomes were prepared from ouabain-infused rats and saline controls as described^30 and analyzed by Western blotting.
(§1) Samples were analyzed by Western blotting using specific antibodies against podocyte markers, such as nephrin (Santa Cruz Biotechnology), podocin (Sigma-Aldrich), synaptopodin (Progen Biotechnik), ZO-1 (Invitrogen) as described in Ferrandi M, et al (J Mol Med 2010; 88:203-217).^30 Actin (Sigma-Aldrich) was used for normalization.

Series [4] relates to normotensive Sprague-Dawley rats. Kind of series: Chronic subcutaneous ouabain infusion in rats (OHR): blood pressure and renal function. Format: in vivo, rat. The conditions noted are these: 8 weeks. How it is done:
Care and husbandry of rats complied with the European Directives No. 86/609 and with the Italian Law (DL116, Jan. 27, 1992). The authorization for animal use in Prassis Sigma-Tau laboratories was obtained from the Italian Health Authority. Ouabain hypertensive rats (OHR) were obtained by subcutaneous ouabain infusion (Sprague-Dawley rats, 15 μg/kg/day ouabain from Sigma-Aldrich, n=7) with osmotic mini-pumps for 8 weeks as described.^1,2 Normotensive control rats received sterile saline (n=7). Systolic blood pressure and heart rate were recorded weekly in conscious rats by tail-cuff plethysmography.
Rats were housed in single metabolic cages and 24 h-urine samples were collected and analyzed for total protein and creatinine excretion (kits from Sentinel Diagnostics, Milan, Italy) as described in Doi M, et al.^29 At sacrifice, rat plasma was collected for creatinine determination.

For series [5], the system named is nephrin, synaptopodin (podocyte proteins). Kind of series: Immunofluorescence of podocyte proteins in kidney sections of ouabain-infused rats. The conditions noted are these: OHR vs control rats. The series is classed as in vivo, rat. The protocol:
Immunofluorescence was performed on rat kidney sections by using anti-nephrin and anti-synaptopodin antibodies as described.^30

For series [6], the system named is glomerular podocytes (nephrin, synaptopodin expression). Kind of series: Western blot of cultured rat glomerular podocytes incubated with ouabain. Format: cell-based. As to conditions: 10^−9 M ouabain for 4 days, vs control group. The protocol: Kidneys were taken from 7-10 day-old rats and glomerular podocytes were isolated and cultured as described.^30 Cell characterization was performed using markers of podocytes (nephrin, podocin, synaptopodin), epithelial (cytokeratin), smooth muscle (a-SMC) and endothelial cells (CD31). Podocytes were incubated in the absence or presence of 10^−9 M ouabain for 4 days and analyzed by Western blotting.
as §1

[7] abbreviates: ouabain 15 μg/kg/day s.c., OHR vs saline controls, p<0.05.

For `C[C@]12CC[C@H](O)C[C@H]1CC[C@@H]1[C@@H]2CC[C@]2(C)[C@@](O)(c3ccoc3)CC[C@]12O` [rostafuroxin], in series [1], the “antihypertensive activity in patients” value is on record as “has been shown to have antihypertensive activity”.

Regarding `C[C@H]1O[C@@H](O[C@H]2[C@@H](O)C[C@H](O[C@H]3[C@@H](O)C[C@H](O[C@H]4CC[C@@]5(C)[C@H](CC[C@@H]6[C@@H]5C[C@@H](O)[C@]5(C)[C@@H](C7=CC(=O)OC7)CC[C@]65O)C4)O[C@@H]3C)O[C@@H]2C)C[C@H](O)[C@@H]1O` [digoxin], in series [2], the “cross-reactivity of ouabain antiserum” value is on record as “approximately 0.42%”.

`C[C@@H]1O[C@@H](O[C@H]2C[C@@H](O)[C@]3(CO)[C@H]4[C@H](O)C[C@]5(C)[C@@H](C6=CC(=O)OC6)CC[C@]5(O)[C@@H]4CC[C@]3(O)C2)[C@H](O)[C@H](O)[C@H]1O` [ouabain]: the “nephrin expression in renal microsomes, normalized for actin” value in series [3] was “reduced expression”. In series [3] (data not shown), the “synaptopodin expression in renal microsomes” value is recorded as “but not of synaptopodin”. Also, in series [4] (ouabain 15 μg/kg/day s.c. by osmotic mini-pump, OHR vs saline controls, n=7), the “systolic blood pressure (SBP)” value was “significantly raised”. In series [4] (ouabain 15 μg/kg/day s.c., 24 h urine, OHR), this compound showed a urinary creatinine of 33.8±1.4 mg/24 h. The “reduction of creatinine clearance vs controls” value in series [4] (ouabain 15 μg/kg/day s.c., OHR vs saline controls, p<0.02) is given as −18%. In addition, in series [4] (setting [7]), the “increase of plasma creatinine vs controls” value was “+14%” and the “urinary protein excretion, change vs controls” value is recorded as “+54%”. Further, the “synaptopodin staining in kidney sections” value in series [5] (data not shown) is on record as “but not for synaptopodin”. For the same compound, the “nephrin staining in kidney sections” value in series [5] (three rats per group) is “significant reduction of staining”. Further, the “nephrin expression in podocytes, normalized for actin” value in series [6] is “decreased expression”.

For the compound `CC(=O)S[C@@H]1CC2=CC(=O)CC[C@]2(C)[C@H]2CC[C@@]3(C)[C@@H](CC[C@@]34CCC(=O)O4)[C@H]12` [spironolactone], the “cross-reactivity of ouabain antiserum” value in series [2] is less than 0.01%.
